Active and inactive are the calls of the source.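 How the source made its calls: active means half-maximal concentration at most 10 µM from a sound curve fit, with response shifting 30% or more across doses; inactive means the rest.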
Biological target: GTPase HRas (Homo sapiens) (UniProt P01112)
Assay: H-Ras act fluorescent GTP binding inhibition – biochemical, multiplex bead flow cytometry, round 1, selectivity assay for Cdc42 probe extension project, SAR follow-up (AID 588381)
Conditions: GST-H-Ras act beads, Bodipy-FL-GTP binding; for response, lower = inhibition: at 100 µM (top of the series)

Chain of GTPase HRas (Homo sapiens) (P01112 whole entry, looked up): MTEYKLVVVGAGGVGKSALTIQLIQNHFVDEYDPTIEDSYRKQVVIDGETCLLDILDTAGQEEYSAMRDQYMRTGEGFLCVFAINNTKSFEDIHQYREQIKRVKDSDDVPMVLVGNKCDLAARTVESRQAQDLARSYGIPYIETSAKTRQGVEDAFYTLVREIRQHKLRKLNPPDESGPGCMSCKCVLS

Structure (SMILES)	response, lower = inhibition	EC50 [µM]
O=C(C#Cc1ccccc1)c1cccc([N+](=O)[O-])c1	inactive	
COc1ccc(C2CC(c3ccccc3)=NN2c2ccc(S(N)(=O)=O)cc2)cc1 (centres undefined)	inactive	
NS(=O)(=O)c1ccc(N2N=C(c3ccccc3)CC2c2ccccc2)cc1 (centres undefined)	inactive	
CC1(C)Cc2c(sc(NC(=S)NC(=O)c3ccccc3)c2C(=O)O)CO1		0.082
